The values that follow come from article PMC5728534 (PLoS ONE, 2017).

Substitutions are numbered along the chain they refer to. Entries after “also recorded” stand apart in the source; their conditions may differ. Where two headings read alike, the source gives them in different places.

Data set [1] concerns the target T1, OCT1*5 (Gly465Arg/Met420del) (Homo sapiens, UniProt O15245, DEL420-420/G465R/L160F).
T1 construct: expressed in transfected cells; host or cells: HEK293 T-REx (Flp-In)
T1 sequence (O15245 with tags, fused parts or gaps L160F/DEL420-420/G465R): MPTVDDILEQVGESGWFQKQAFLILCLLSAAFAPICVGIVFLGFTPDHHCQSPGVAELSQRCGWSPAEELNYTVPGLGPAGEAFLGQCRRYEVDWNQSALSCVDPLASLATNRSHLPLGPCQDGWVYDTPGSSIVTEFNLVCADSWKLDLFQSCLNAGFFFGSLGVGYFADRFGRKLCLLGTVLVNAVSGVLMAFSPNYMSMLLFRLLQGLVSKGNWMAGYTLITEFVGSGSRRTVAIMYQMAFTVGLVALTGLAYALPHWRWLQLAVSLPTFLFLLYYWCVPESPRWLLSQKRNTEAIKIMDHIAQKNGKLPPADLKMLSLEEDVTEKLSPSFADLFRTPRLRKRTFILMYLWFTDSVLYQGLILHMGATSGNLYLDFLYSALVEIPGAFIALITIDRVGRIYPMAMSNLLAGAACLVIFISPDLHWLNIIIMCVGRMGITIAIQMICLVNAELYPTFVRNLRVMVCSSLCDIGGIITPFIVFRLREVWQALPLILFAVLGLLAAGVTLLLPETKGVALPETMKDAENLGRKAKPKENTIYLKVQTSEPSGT
Kind of data set: Ranitidine uptake in HEK293 cells overexpressing OCT1*5. Particulars: 1 μM and 10 μM ranitidine, 2 min. It is filed as in vitro ADME.
Text: (§1) HEK293 or CHO cells overexpressing the human OCT1 alleles *1A (characterized by the amino acid substitution Met408Val), *1B, *1C (Phe160Leu), *1D (Pro341Leu/Met408Val), *2 (Met420del), *3 (Arg61Cys), *4 (Gly401Ser), *5 (Gly465Arg/Met420del), *6 (Cys88Arg/Met420del), *7 (Ser14Phe), *8A (Arg488Met), *8B (Arg488Met/Met408Val), *9 (Pro117Leu), *10 (Ser189Leu), *11 (Ile449Thr), *12 (Ser29Leu), or *13 (Thr245Met), the human OCT2 reference and variant alleles (Ala270Ser), human OCT3, and the control cells (transfected with the empty pcDNA5 vector) were generated by targeted chromosomal integration using the Flp-In™ System (Life Technologies, Darmstadt, Germany).
(§2) Six hundred thousand HEK293 or CHO cells were plated per well in 12-well plates (pre-coated with poly-D-lysine) and were grown for 48 hours to reach confluence. Cells were kept at 37°C and 5% CO2 in DMEM (HEK293) or RPMI (CHO), supplemented with 10% FCS, 100 U/ml penicillin, and 100 μg/ml streptomycin. Uptake experiments were performed at pH 7.4 using HBSS supplemented with 10 mM HEPES buffer (herein referred to as HBSS+). […]
(§3) For all transport measurements, the intracellular amount of substrate was normalized to the total amount of protein of the sample as measured using the bicinchoninic acid assay [49].
(§4) For quantification of intracellular substrates, the cell debris were removed by centrifugation at 17,000 x g for 10 min. […]

For data set [2], the target named is T2, OCT1*6 (Cys88Arg/Met420del) (Homo sapiens, UniProt O15245, C88R/DEL420-420/L160F).
T2 construct: expressed in transfected cells; host or cells: HEK293 T-REx (Flp-In)
T2 sequence (O15245 with tags, fused parts or gaps C88R/L160F/DEL420-420): T1 sequence (O15245 with tags, fused parts or gaps L160F/DEL420-420/G465R) with C88R, R464G
The data set is described as follows: Ranitidine uptake in HEK293 cells overexpressing OCT1*6. It counts as in vitro ADME. Particulars: 1 μM and 10 μM ranitidine, 2 min.
Text: as §1, §2, §3, §4

Data set [3] addresses T3, OCT1*1B (Homo sapiens, UniProt O15245, L160F).
T3 sequence (O15245 1-554 L160F): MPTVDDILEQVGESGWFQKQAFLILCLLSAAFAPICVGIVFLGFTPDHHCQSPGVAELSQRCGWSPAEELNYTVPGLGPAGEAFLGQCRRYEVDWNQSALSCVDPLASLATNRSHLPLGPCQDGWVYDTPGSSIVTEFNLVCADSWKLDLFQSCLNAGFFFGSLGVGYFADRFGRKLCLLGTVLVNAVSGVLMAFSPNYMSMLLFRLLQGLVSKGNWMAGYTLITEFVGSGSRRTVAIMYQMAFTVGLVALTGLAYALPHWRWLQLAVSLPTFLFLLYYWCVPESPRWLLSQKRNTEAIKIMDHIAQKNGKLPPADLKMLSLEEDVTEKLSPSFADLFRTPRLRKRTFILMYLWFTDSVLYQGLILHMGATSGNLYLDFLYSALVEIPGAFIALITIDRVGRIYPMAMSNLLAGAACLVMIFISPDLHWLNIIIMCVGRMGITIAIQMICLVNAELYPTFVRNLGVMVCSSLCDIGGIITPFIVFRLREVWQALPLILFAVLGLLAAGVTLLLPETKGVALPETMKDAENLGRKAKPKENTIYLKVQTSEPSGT
To be noted: for Vmax (±SEM): OCT1*1B reference allele, 10-600 μM ranitidine, control-cell uptake subtracted.
Text: as §1
Six hundred thousand HEK293 or CHO cells were plated per well in 12-well plates (pre-coated with poly-D-lysine) and were grown for 48 hours to reach confluence. Cells were kept at 37°C and 5% CO2 in DMEM (HEK293) or RPMI (CHO), supplemented with 10% FCS, 100 U/ml penicillin, and 100 μg/ml streptomycin. Uptake experiments were performed at pH 7.4 using HBSS supplemented with 10 mM HEPES buffer (herein referred to as HBSS+). Cells were washed once with 1 ml pre-warmed HBSS+ buffer (37°C). […] Cells were washed twice with 2 ml ice-cold HBSS+ and lysed in 500 μl lysis buffer.
as §3
For quantification of intracellular substrates, the cell debris were removed by centrifugation at 17,000 x g for 10 min. Four-hundred μl of the supernatant was evaporated to dryness under nitrogen flow at 40°C. The residue was reconstituted in 200 μl 0.1% formic acid and 10 μl were injected into the LC-MS/MS. For the LC-MS/MS analysis an API 4000™ system tandem mass spectrometer (AB SCIEX, Darmstadt, Germany) was used. Samples were separated using a Brownlee SPP RP-Amide Column (4.6x100 mm, 2.7 μm; PerkinElmer), with a SecurityGuard C18, 4x2 mm pre-column (Phenomenex, Aschaffenburg, Germany).
Nonlinear regression to the Michaelis-Menten equation was performed to determine Km and vmax using GraphPad Prism version 6 (GraphPad Software Inc., La Jolla, CA, USA). Nonlinear regression to the Hill equation v = vmin+(vmax-vmin)/1+([I]/IC50)^-Hillslope was performed to determine IC50 using SigmaPlot version 12.0 (Systat Software, San Jose, California, USA).

Data set [4] deals with T4, OCT1*1A (Met408Val) (Homo sapiens, UniProt O15245, L160F/M408V).
T4 sequence (O15245 1-554 L160F/M408V): T3 sequence (O15245 1-554 L160F) with M408V
To be noted: 1 and 10 μM ranitidine, 2 min.
Text: as §1, §2, §3, §4

`CNC(=C[N+](=O)[O-])NCCSCc1ccc(CN(C)C)o1` [ranitidine, Ranitidine]: the ranitidine transport activity entry in data set [1] and in data set [2] was “completely lacked ranitidine uptake; also recorded: complete lack of ranitidine transport activity” throughout. For the same compound, the “ranitidine uptake, OCT1-overexpressing compared to control cells” value in data set [3] (1 μM ranitidine, 2 min, HEK293) is given as 7.8 fold. Also, in data set [3] (1 μM ranitidine, after 1 min of incubation, HEK293), the “intracellular concentration of ranitidine, OCT1-overexpressing cells compared to control cells” value is on record as 8.5 fold. The “Vmax (±SEM)” value in data set [3] (HEK293, 2 min) is reported as 1125 ± 86.1 pmol x min^-1 x mg protein^-1; in data set [3] (HEK293, 2 min, listed as Ranitidine), 1125 pmol x min^-1 x mg protein^-1. The compound also registered a vmax in data set [3] (wild-type OCT1 (abstract)) of 1125 pmol/min/mg protein. Moreover, the “uptake of ranitidine compared to the reference allele” value in data set [4] is on record as “no significant difference”.
